Activity calls are given as the source filed them.
How the values were obtained:
[1] = antiviral protection against BTV-induced cell death – arbovirus, BSR cells, confirmation (AID 1250); format: functional;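 further: protection from viral cytopathic effect measured as cell viability by ATP luminescence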
[2] = molecular target: T1, Nuclear receptor subfamily 0 group B member 1 (Homo sapiens, UniProt P51843); format: functional, cell-based;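 further: HEK293T cells transfected with SF-1 and DAX-1 plus StAR promoter luciferase reporter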
T1 sequence (P51843 whole entry): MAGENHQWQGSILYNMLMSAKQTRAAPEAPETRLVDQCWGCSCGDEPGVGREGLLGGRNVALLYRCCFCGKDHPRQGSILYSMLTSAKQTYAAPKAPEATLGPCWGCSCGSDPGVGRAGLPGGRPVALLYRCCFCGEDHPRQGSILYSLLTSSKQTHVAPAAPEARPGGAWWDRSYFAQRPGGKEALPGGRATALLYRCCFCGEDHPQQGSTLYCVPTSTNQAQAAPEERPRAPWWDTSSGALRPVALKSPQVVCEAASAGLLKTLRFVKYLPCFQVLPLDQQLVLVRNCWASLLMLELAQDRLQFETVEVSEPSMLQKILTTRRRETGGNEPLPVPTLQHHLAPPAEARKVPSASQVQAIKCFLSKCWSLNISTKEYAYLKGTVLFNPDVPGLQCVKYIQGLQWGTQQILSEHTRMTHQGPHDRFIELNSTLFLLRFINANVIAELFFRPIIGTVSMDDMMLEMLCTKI

cells [3] = format: functional, cell-based
Protein Rev = Protein Rev (Human immunodeficiency virus type 1 group M subtype B (isolate WMJ22)(HIV-1), UniProt P05866); assay: inhibitors of Rev protein–RRE RNA complex – biochemical, protein-RNA interaction, dose response (AID 842); set-up: species or system Human immunodeficiency virus 1
Protein Rev, sequence (P05866 whole entry): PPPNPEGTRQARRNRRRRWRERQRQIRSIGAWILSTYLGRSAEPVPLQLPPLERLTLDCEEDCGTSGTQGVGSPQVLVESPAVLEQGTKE

[4] = molecular target: Glyceraldehyde-3-phosphate dehydrogenase (Homo sapiens, UniProt P04406)
Glyceraldehyde-3-phosphate dehydrogenase, sequence (P04406 whole entry): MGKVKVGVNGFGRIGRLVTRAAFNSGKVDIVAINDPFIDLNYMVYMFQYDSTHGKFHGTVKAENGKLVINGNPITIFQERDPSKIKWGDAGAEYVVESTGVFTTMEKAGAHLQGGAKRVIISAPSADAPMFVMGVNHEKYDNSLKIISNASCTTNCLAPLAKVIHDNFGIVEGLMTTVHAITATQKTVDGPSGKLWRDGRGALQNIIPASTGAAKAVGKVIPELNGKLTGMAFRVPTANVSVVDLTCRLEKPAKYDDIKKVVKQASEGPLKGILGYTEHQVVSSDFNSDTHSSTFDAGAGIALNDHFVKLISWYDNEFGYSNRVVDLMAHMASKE

[5] = molecular target: Melanin-concentrating hormone receptor 1 (Homo sapiens, UniProt Q99705); assay: Fluorescence-based counterscreen for antagonists of the G-protein coupled receptor 7 (GPR7): cell-based high throughput dose response assay to identify antagonists of the melanin-concentrating hormone receptor 1 (MCHR1).; format: functional
Bcl-2-related protein A1 [6] = molecular target: T2, Bcl-2-related protein A1 (Mus musculus, UniProt Q07440); assay: small-molecule antagonists of Bfl-1/BH3 interaction – biochemical, TR-FRET, mouse Bfl-1, confirmation (AID 621);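 further: TR-FRET binding of GST-Bfl-1 to FITC-labelled Bid peptide via terbium antibody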
T2 sequence (Q07440 whole entry): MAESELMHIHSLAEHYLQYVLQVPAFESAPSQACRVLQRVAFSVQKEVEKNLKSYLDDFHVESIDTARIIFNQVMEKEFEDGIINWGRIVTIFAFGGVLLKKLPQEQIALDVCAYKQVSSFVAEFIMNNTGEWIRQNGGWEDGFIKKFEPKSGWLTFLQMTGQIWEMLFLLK

Bcl-2-related protein A1 [7] = molecular target: T2, Bcl-2-related protein A1; assay: Bfl-1 binding inhibitors, SAR follow-up, biochemical, fluorescence polarization (AID 1070)
[8] = molecular target: Lysosomal acid glucosylceramidase (Homo sapiens, UniProt P04062); assay: Dose response cell-based high throughput screening assay to identify enhancers of beta-glucosidase activity. [Related pubchem assays: 784 ]; format: functional
Lysosomal acid glucosylceramidase, sequence (P04062 whole entry): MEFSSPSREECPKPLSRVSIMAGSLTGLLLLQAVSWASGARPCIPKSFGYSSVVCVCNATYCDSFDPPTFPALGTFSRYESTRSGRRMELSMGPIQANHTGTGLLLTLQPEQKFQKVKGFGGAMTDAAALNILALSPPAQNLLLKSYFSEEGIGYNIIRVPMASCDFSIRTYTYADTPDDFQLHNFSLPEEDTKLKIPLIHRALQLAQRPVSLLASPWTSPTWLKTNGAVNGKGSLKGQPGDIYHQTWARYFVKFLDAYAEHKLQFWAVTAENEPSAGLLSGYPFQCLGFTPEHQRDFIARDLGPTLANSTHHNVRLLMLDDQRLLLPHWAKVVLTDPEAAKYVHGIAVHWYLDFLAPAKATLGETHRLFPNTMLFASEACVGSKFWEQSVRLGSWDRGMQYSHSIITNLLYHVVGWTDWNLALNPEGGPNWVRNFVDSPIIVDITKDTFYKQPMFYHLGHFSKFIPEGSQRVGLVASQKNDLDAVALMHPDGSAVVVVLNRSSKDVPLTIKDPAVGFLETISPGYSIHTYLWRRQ

[9] = molecular target: Glucose-6-phosphate 1-dehydrogenase (Homo sapiens, UniProt P11413); assay: inhibition of Homo sapiens G6PD, dose series – biochemical, fluorescence, selectivity assay for P. falciparum G6PD inhibitor project, dose response (AID 504792); format: functional
Glucose-6-phosphate 1-dehydrogenase, sequence (P11413 whole entry): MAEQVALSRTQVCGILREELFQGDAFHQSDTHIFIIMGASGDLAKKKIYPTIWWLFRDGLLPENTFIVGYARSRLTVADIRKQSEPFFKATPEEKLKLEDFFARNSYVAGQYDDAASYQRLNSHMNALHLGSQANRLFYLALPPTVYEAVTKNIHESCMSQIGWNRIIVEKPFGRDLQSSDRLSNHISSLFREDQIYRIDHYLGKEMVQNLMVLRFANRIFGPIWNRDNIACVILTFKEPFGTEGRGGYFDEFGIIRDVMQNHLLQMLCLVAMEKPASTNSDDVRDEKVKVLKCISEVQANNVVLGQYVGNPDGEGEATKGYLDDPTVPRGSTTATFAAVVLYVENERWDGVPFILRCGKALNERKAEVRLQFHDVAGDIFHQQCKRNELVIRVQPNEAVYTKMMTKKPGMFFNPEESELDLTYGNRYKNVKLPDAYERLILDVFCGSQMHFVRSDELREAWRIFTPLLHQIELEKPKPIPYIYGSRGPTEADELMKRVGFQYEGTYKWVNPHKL

[10] = molecular target: T3, Rac GTPase-activating protein 1 (Homo sapiens, UniProt Q9H0H5); assay: blockers of MgcRacGAP-driven Rac1 GTP hydrolysis – biochemical, ADP Hunter fluorescence, primary and confirmatory, confirmation (AID 624330); format: functional
T3 sequence (Q9H0H5 whole entry): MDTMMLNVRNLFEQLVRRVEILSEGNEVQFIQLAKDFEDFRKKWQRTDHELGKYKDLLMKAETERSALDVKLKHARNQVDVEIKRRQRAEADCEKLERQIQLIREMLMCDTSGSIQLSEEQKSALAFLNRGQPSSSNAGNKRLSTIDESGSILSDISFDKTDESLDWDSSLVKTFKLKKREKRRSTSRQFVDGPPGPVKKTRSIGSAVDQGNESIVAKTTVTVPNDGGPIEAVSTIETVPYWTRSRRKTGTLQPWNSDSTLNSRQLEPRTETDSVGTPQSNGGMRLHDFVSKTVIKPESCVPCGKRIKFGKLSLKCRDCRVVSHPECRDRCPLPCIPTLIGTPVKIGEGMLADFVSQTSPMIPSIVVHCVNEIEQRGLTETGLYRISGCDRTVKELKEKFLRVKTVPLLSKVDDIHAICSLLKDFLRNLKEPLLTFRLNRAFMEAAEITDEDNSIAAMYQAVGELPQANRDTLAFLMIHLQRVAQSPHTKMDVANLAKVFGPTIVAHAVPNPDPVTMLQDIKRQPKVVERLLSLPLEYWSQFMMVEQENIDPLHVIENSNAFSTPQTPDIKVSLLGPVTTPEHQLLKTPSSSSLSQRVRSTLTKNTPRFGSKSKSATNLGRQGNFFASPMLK

SUMO-activating enzyme [11] = molecular target: T4, SUMO-activating enzyme (Homo sapiens, UniProt Q9UBT2); assay: blockers of SAE1/SAE2–UBC9 SUMO transfer – biochemical, HTRF, uHTS, primary screen (AID 2006); format: protein-complex assay
T4 sequence (Q9UBE0 whole entry): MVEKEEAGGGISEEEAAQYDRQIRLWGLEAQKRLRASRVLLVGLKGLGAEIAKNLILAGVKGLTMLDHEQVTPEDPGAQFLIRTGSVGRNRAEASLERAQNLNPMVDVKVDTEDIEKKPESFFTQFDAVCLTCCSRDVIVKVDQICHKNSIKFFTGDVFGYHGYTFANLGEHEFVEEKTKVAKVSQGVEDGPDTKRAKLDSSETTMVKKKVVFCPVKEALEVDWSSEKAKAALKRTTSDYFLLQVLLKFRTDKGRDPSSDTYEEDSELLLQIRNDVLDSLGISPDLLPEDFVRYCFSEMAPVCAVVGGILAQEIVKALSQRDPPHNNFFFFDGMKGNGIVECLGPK
T4 sequence (Q9UBT2 whole entry): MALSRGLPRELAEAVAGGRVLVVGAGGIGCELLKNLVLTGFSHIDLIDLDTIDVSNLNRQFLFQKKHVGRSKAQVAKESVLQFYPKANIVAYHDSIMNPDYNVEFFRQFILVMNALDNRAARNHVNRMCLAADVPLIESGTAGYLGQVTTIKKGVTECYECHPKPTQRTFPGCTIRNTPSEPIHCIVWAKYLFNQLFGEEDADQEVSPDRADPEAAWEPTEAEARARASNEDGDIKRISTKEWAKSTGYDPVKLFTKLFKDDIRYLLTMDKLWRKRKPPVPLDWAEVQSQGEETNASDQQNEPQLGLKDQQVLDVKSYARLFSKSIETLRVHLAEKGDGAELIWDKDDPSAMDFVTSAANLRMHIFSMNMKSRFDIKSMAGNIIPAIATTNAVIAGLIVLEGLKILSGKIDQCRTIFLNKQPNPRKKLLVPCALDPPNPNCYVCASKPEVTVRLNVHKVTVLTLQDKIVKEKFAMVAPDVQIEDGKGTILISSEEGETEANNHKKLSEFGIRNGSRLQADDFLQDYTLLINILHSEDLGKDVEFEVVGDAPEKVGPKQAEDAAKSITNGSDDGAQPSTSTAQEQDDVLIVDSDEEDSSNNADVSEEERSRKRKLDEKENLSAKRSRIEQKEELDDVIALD

[12] = viability of HCT116 lacking mutant beta-catenin – cell-based, human colon tumor, dose response (AID 1045); format: functional;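 further: HCT116 colon tumor cells with beta catenin knocked out; cells exposed to compound for 60 hours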
[13] = viability of PTEN-deleted HCT116 cells – cell-based, HCT116 PTEN knockout, dose response (AID 1047); format: functional;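 further: HCT116 colon tumor cells with PTEN knocked out; cells exposed to compound for 60 hours before readout; potency for loss of cell viability measured by luminescence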
[14] = molecular target: Induced myeloid leukemia cell differentiation protein Mcl-1 (Homo sapiens, UniProt Q07820); format: functional
Induced myeloid leukemia cell differentiation protein Mcl-1, sequence (Q07820 whole entry): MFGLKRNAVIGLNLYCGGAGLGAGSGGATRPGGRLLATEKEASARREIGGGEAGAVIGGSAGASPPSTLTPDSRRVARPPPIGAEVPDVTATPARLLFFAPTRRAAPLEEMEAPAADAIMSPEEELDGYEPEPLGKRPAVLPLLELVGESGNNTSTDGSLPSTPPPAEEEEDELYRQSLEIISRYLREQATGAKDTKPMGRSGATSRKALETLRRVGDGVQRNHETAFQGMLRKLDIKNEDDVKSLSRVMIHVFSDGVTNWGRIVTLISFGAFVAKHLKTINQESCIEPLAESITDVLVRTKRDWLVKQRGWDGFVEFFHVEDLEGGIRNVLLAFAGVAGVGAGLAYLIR

[15] = Luminescence Cell-Based Dose Retest to Confirm Inhibitors of Cancer Stem Cells. [Related pubchem assays (depositor defined):AID2717, AID2721]; format: functional; details: Homo sapiens
[16] = viability of uninfected HEp-2 cells – cell-based, HTS, cytotoxicity control for RSV inhibitor project, dose response (AID 2410); format: functional; details: human respiratory syncytial virus
SUMO-activating enzyme [17] = molecular target: T4, SUMO-activating enzyme; assay: blockers of UBC9-mediated SUMO conjugation – biochemical, AlphaScreen, SUMOylation inhibitor project, confirmation (AID 2018); format: functional
cells [18] = assay: cells
Vero = assay: cells; format: functional; details: Chlorocebus sabaeus
[19] = molecular target: Eukaryotic translation initiation factor 4E (Mus musculus, UniProt P63073); assay: blockers of eIF4G binding by eIF4E – biochemical, TR-FRET, dose response (AID 855); format: functional;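 further: potency for disrupting eIF4E binding to eIF4GI seen as loss of FRET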
Eukaryotic translation initiation factor 4E, sequence (P63073 whole entry): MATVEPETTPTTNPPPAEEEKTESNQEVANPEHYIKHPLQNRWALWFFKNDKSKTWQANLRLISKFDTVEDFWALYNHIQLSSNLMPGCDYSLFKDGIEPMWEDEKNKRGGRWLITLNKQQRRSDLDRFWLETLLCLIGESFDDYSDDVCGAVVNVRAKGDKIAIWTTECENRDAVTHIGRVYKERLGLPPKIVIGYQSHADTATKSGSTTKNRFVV

[20] = molecular target: T5, DNA repair and recombination protein RAD54-like (Homo sapiens, UniProt Q92698); assay: RAD54 Holliday junction migration blockers – biochemical, fluorescence, cherry-picked samples, dose series, confirmation (AID 651657); format: functional
T5 sequence (Q92698 whole entry): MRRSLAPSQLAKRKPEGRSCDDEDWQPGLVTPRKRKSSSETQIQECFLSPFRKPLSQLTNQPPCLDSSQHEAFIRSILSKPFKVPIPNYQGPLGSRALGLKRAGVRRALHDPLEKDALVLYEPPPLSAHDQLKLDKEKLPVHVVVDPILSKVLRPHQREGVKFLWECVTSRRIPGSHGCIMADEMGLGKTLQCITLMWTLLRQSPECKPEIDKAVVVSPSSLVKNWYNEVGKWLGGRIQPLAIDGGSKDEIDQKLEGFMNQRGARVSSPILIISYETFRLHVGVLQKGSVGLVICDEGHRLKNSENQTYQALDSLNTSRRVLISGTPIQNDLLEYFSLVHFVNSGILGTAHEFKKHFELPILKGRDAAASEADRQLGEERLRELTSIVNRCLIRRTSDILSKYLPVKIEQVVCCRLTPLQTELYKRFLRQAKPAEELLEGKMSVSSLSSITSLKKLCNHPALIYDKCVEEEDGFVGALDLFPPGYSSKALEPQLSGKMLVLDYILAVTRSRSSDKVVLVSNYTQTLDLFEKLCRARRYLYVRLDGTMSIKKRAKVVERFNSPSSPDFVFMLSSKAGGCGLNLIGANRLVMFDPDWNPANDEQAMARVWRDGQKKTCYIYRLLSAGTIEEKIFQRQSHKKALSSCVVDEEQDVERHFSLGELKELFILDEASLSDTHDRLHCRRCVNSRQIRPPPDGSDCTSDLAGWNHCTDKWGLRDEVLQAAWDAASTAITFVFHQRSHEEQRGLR

Kallikrein-7 = Kallikrein-7 (Homo sapiens, UniProt P49862); assay: Fluorescence Intensity-based biochemical primary high throughput dose response assay to identify activators of kallikrein-7 (K7) zymogen.
Kallikrein-7, sequence (P49862 whole entry, the tested form may be a part): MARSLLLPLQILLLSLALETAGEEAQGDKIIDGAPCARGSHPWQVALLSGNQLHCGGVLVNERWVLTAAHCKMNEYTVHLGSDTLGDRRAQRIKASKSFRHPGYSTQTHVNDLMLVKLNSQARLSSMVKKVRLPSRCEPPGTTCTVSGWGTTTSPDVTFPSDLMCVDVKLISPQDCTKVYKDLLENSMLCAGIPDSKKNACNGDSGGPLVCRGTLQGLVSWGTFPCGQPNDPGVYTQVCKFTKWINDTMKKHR

[21] = molecular target: T6, Sentrin-specific protease 1 (Homo sapiens, UniProt Q9P0U3); assay: SENP1 catalytic domain blockers, concentration series – biochemical, kinetic FRET, dose response (AID 651697); format: functional; details: read-out: IC50_Mean
T6 sequence (Q9P0U3 whole entry): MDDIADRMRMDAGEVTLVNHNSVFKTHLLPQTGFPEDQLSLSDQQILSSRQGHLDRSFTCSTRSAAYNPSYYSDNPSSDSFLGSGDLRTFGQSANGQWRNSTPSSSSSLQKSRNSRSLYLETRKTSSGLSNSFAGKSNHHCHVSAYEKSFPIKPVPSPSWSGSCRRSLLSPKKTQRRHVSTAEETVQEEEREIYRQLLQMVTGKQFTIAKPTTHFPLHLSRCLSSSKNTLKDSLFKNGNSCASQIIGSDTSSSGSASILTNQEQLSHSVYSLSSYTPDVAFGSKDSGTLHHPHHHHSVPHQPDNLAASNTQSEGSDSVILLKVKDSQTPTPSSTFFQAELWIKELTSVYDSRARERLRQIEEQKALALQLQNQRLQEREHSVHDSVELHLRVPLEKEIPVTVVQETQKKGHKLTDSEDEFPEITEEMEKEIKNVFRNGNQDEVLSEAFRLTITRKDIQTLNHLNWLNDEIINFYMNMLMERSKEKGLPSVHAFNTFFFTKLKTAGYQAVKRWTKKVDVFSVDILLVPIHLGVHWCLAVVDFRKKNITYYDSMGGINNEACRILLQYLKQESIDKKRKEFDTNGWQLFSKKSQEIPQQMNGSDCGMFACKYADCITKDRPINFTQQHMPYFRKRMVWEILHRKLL

[22] = HEK-293T cell viability reduction – luminescence, B-cell screen hits, cytotoxicity control for BCR NF-kB inhibitor project, dose response (AID 489021); format: functional, cell-based;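 further: HEK-293T cells carrying an NF-kB luciferase reporter; cells exposed to compound for about 14 hours before viability readout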
[23] = molecular target: T6, Sentrin-specific protease 1; assay: Dose response confirmation of small molecule inhibitors of the catalytic domain of the SUMO protease, SENP1 in a FRET assay.; format: functional; details: read-out: IC50_Mean
Cytochrome P450 3A4 = Cytochrome P450 3A4 (Homo sapiens, UniProt P08684);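 further: CYP3A4 tested as one member of a cytochrome P450 panel screen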
Cytochrome P450 3A4, sequence (P08684 whole entry): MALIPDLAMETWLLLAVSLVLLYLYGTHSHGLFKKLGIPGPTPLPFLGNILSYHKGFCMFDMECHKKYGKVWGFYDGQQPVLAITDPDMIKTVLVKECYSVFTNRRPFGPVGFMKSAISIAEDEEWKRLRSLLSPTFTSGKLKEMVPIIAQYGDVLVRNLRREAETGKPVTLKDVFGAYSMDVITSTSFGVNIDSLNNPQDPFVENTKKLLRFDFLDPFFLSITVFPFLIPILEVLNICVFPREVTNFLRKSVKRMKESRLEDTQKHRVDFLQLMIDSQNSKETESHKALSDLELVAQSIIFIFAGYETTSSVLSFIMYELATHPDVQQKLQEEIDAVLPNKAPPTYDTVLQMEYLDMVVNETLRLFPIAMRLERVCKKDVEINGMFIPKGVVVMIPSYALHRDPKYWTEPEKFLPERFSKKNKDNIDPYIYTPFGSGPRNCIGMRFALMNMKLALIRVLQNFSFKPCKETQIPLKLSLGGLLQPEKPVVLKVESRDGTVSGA

[24] = molecular target: Metabotropic glutamate receptor 4 (Rattus norvegicus, UniProt P31423); assay: Modulation of the Metabotropic Glutamate Receptor mGluR4: Rat PAM Potency. [Related pubchem assays (depositor defined):AID2437, AID2807]; format: functional
Metabotropic glutamate receptor 4, sequence (P31423 whole entry): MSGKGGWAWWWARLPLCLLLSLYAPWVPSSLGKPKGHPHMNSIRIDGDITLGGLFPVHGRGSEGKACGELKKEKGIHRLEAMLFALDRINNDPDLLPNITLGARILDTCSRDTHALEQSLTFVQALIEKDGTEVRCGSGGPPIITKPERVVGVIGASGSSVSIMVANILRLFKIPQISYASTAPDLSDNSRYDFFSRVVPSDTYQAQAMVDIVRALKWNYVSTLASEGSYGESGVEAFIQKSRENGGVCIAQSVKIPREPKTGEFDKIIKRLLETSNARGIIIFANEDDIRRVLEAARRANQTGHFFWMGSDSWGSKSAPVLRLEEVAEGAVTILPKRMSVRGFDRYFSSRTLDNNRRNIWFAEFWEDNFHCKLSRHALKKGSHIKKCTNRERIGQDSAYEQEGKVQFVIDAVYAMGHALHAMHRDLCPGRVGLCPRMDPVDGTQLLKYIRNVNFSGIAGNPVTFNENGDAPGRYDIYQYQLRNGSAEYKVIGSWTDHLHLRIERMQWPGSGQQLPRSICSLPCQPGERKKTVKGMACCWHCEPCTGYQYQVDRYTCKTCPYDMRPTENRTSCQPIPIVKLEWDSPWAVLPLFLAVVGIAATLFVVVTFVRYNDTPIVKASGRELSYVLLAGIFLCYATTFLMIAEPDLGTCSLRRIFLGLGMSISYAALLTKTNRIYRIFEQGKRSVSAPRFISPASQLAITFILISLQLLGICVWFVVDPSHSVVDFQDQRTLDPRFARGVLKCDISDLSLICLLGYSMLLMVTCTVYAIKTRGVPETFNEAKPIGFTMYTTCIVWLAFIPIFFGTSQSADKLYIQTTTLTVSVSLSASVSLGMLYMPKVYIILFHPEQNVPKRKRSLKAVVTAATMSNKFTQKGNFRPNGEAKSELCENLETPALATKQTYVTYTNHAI

COc1ccc(/C=C/C(=O)Nc2ccccc2C(=O)O)cc1
IC50 [1]: 31 µM (active) | IC50 [2]: > 67.5 µM (inactive) | IC50 (cells [3]): > 67.5 µM (inactive)

NCCCC(=O)N1c2ccccc2Sc2ccccc21
IC50 (Protein Rev): > 79.4 µM (not active)

Cc1cccc(N2C(=O)C(Cl)=C(N3CCN[C@@H](C)C3)C2=O)c1
IC50 [4]: > 50 µM (inconclusive)

CC(C)COc1ccc(Cc2cnc(N)nc2N)cc1
IC50 (Protein Rev): > 79.4 µM (not active)

COCCCNC(=O)/C=C1\Sc2ccccc2N(Cc2ccccc2F)C1=O
IC50 [5]: 28.8 µM (not active)

CN1CCN(C2=C(Cl)C(=O)N(c3ccnc(Cl)c3)C2=O)CC1
IC50 (Bcl-2-related protein A1 [6]): 35.6 µM (active) | IC50 (Bcl-2-related protein A1 [7]): 29 µM (active) | IC50 [4]: > 100 µM (not active)

CC1=C(C(N)=O)C(c2cccs2)n2nc(-c3cccc(C)c3)nc2N1 (centres undefined)
EC50 [8]: > 50 µM (not active)

O=C(Nc1sc2c(c1C(=O)O)CCC2)c1ccc(F)cc1
IC50 [9]: > 80 µM (inactive) | IC50 [1]: 31.4 µM (active)

O=[N+]([O-])c1cc([N+](=O)[O-])c2nonc2c1Nc1ccc(O)cc1
IC50 [10]: 56.8 µM (active) | IC50 (SUMO-activating enzyme [11]): > 100 µM (inactive)

COc1cc2c(-c3ccc(O)cc3)nc3c(c(C)nn3-c3ccccc3)c2cc1OC
EC50 [12]: 8.96 µM (active) | EC50 [13]: 9.2 µM (active) | IC50 [14]: < 0.4 µM (active) | AC50 [15]: 1.23 µM (active) | CC50 [16]: 9.63 µM (active) | IC50 (SUMO-activating enzyme [17]): 2.06 µM (active) | IC50 (cells [18]): 19.1 µM (active) | CC50 (Vero): 19.7 µM (active) | IC50 (SUMO-activating enzyme [11]): 7.67 µM (active) | IC50 [19]: 53.5 µM (inactive)

CCOCCCn1c(=N)c(C(=O)NCCN2CCOCC2)cc2c(=O)n3cccc(C)c3nc21
AC50 [20]: 25.3 µM (active) | EC50 (Kallikrein-7): > 69.5 µM (inactive) | EC50 [8]: > 50 µM (not active)

CCN1C(=O)c2cccc3c(NC(=O)c4cccc(N5C(=O)CCC5=O)c4)ccc1c23
IC50 [21]: 17.9 µM (active) | IC50 [22]: > 80 µM (inactive) | IC50 [23]: 11.3 µM (active) | AC50 (Cytochrome P450 3A4): 22.4 µM (inconclusive)

O=C(Nc1ccc(N2C(=O)CC(c3ccccc3)C2=O)c(Cl)c1)c1ccccn1 (centres undefined)
EC50 [24]: 0.49 µM (active)

O=C(Nc1ccc(Cl)c(Cl)c1)c1ccncn1
EC50 [24]: 3.37 µM (active)

From ChEMBL document CHEMBL1201862, “PubChem BioAssay data set” (2004)
